In US20250170141A1, “MRGPRX2 MODULATORS AND RELATED METHODS OF TREATMENT” (Escient Pharmaceuticals, Inc., priority 2023, published 2025):
pIC50: −log10 of the molar value. Like-named read-outs stand apart in the source and are kept apart here.

Assays:
Human LAD2 cells = assay: Mast Cell Beta-Hexosaminidase Release Assay (LAD2 cells, 500 nM Cortistatin-14); format: cell-based; details: read-out: MRGPRX2 Antagonist Activity
Protocol: Human LAD2 cells (NIH) were maintained in an incubator at 37° C. with 5% CO2 and cultured in StemPro-34 serum-free media (Gibco 10639011) supplemented with 2 mM L-glutamine, 100 U/ml penicillin, […] streptomycin and 100 ng/ml SCF (Invitrogen PEP0860), at a concentration of 2-5×10^5 cells/mL, with hemidepletion every 1-2 weeks.
Cells were transferred to SCF-Free medium at 2.5×10^5 cells/mL and kept in an incubator overnight. On the day of the assay, cells were washed twice in Assay Buffer (final concentrations 10 mM HEPES, 137 mM NaCl, 5.6 mM D-glucose, 2.7 mM KCl, 1 mM MgCl, 1.8 mM CalCl2, 0.4 mM Na2HPO4·7H2O, 0.04% BSA, pH=7.4) and plated in a 96-well v-bottom plate at 20,000 cells per well in 80 μL Assay Buffer. Antagonist compounds solubilized at 10 mM in DMSO were diluted in Assay Buffer to 10× final desired concentrations as a 10-point curve (10 μM final top concentration with 1:3 serial dilutions) and 10 μL added per well. Plates were then incubated for 1 hour at 37° C. Agonists were diluted in Assay Buffer to 10× desired concentrations and 10 μL of the appropriate agonist added to each well. The final concentration of Cortistatin-14 (Tocris 3374) used in antagonist assays was 500 nM. Final concentrations of DMSO were kept consistent across the plate. Plates were then incubated in a warm air oven for 30 minutes at 37° C., followed by centrifugation at 4° C. for 5 minutes at 450×g. 50 μL supernatant from each well was then transferred to a 96-well flat bottom plate containing 100 μL substrate solution per well (3.5 mg/mL p-Nitrophenyl-N-acetyl-o-D-glucosaminide (Sigma 487052) in Citrate Buffer containing a final concentration of 40 mM Citric Acid, 20 mM Na2HPO4·7H2O, pH=4.5). To the cell pellets left in the remaining assay buffer, 150 μL 0.1% Triton-X-100 was then added to each well, resuspended by pipetting up and down, and 50 μL cell lysates transferred to a second 96-well flat bottom plate containing 100 μL substrate solution per well. Plates containing transferred supernatant and cell lysates were then incubated in a warm air oven for 90 minutes at 37° C. After incubation, 50 μL of 400 mM Glycine buffer (pH 10.7) was added into each well and the plate was read on a Molecular Devices SpectraMax iD5 plate reader (absorbance at 405 nm with reference filter at 620 nm). After background subtraction, the percentage degranulation (percent beta-hexosaminidase release) was calculated as 100×(supernatant values)/(supernatant+lysate values), followed by analysis using GraphPad Prism software to calculate an IC50 value for each compound.
The activity ranges are denoted as follows: “+++++” denotes antagonist activity <100 nM; “++++” denotes antagonist activity between 100 and 500 nM; “+++” denotes activity between 501 and 1000 nM; “++” denotes activity between 1001 and 2500 nM; and “+” denotes activity >2500 nM.

[1] = Mouse Pharmacokinetic Studies (50 mg/kg oral gavage, plasma LC-MS/MS); format: in vivo; details: male C57BL/6 mice, non-fasted
Protocol: Compounds were formulated in 5% DMSO, 5% Solutol, and 90% PBS without Ca and Mg (pH 7.4) at a concentration of […]. Male C57BL/6 mice (n=6/compound) were administered a 50 mg/kg dose of each compound by oral gavage under a non-fasted condition. Blood samples were collected via the Submandibular vein onto K2-EDTA at 0.5, 1, 2, 4, 8 and 24 hours after dosing, and plasma was prepared and stored at −80° C. until analysis. Plasma sample preparation for analysis was done by protein precipitation using acetonitrile (including Verapamil as an internal standard) followed by centrifugation. Compound concentrations were determined in extracted plasma using LC-MS/MS relative to a 12-point standard curve covering the 1 to 4000 nM range. Non-compartmental analysis using Phoenix WinNonlin was used to estimate pharmacokinetic parameters including area under the curve, clearance, and half-life. The administered dose was confirmed by analysis of residual dosing material by UPLC-UV relative to a single point calibration sample.

human MRGPRX2 = target: T1, human MRGPRX2 (Homo sapiens, UniProt Q96LB1); assay: MRGPRX2 activity: IP-One Gq HTRF assay in CHO cells, antagonism versus 0.3 uM Cortistatin-14; format: cell-based; details: versus 0.3 uM Cortistatin-14 agonist, CHO cells expressing human MRGPRX2, read-out: MRGPRX2 Antagonist Activity
T1 construct: expressed in transfected cells; host or cells: CHO cells, stably transfected (G418 and Hygromycin B selection)
T1 sequence (Q96LB1 1-330): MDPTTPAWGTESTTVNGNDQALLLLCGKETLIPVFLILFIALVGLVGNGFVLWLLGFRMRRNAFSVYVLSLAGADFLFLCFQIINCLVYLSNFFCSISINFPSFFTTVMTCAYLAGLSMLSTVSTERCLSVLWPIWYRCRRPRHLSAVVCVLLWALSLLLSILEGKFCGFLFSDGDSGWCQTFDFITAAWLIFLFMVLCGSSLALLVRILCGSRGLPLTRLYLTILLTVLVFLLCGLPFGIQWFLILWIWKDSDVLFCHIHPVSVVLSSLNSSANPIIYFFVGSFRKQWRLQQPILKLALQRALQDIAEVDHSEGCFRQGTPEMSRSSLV
Summary of the method: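 Antagonist IC50 was derived from the HTRF IP-1 signal after co-addition of compounds (10 points, top 30 uM, 3-fold steps) and 0.3 μM Cortistatin-14 agonist to human MRGPRX2-expressing CHO cells. Assay buffer contained 50 mM LiCl, pH 8; plates sat 1 h at 37 °C, then 1 h at room temperature.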

[2] = Homo sapiens, LAD2, Mast Cell Beta-Hexosaminidase Release Assay
[3] = male, C57BL/6, mouse, po, 50 mg/kg
[4] = Mast Cell Beta-Hexosaminidase Release Assay

SMILES: C[C@H](c1ccccc1F)c1c(F)c(F)cc2c1NC(NCc1ncccc1F)=NS2(=O)=O [Compound 10-6B, (R)-6,7-difluoro-5-(1-(2-fluorophenyl)ethyl)-3-(((3-fluoropyridin-2-yl)methyl)amino)-4H-benzo[e][1,2,4]thiadiazine 1,1-dioxide]
- pIC50 (Human LAD2 cells; [2]): 6.30 to 7.00
- TBC [1]: 33 mL/min/kg
- Cmax [1, 3]: 2.7 µM
- pIC50 (human MRGPRX2): 6.30 to 7.00

SMILES: Cc1c(F)cccc1CNC1=NS(=O)(=O)c2ccc(F)c(C(C)c3ccccc3F)c2N1 (single isomer, unassigned) [Compound 10-3B]
- pIC50 (Human LAD2 cells; [4]): > 7.00
- Cmax ([1]; 50 mg/kg): 4.2 µM
- T1/2 ([1]; 50 mg/kg): 2 h
- TBC ([1]; 50 mg/kg): 41 mL/min/kg
- pIC50 (human MRGPRX2): > 7.00

SMILES: CC(c1ccccc1F)c1c(F)ccc2c1NC(NCc1cccc(F)c1)=NS2(=O)=O (single isomer, unassigned) [Compound 10-5A]
- pIC50 (Human LAD2 cells; [4]): 5.60 to 6.00
- Cmax ([1]; 50 mg/kg): 2.8 µM
- TBC ([1]; 50 mg/kg): 50 mL/min/kg
- half-life [1, 3]: 2.2 h
- pIC50 (human MRGPRX2): > 7.00

SMILES: CC(c1ccccc1F)c1c(F)ccc2c1NC(NCc1cccc(F)n1)=NS2(=O)=O (single isomer, unassigned) [Compound 10-2A]
- pIC50 (Human LAD2 cells; [4]): 6.00 to 6.30
- Cmax ([1]; 50 mg/kg): 2.7 µM
- T1/2 ([1]; 50 mg/kg): 3.0 h
- TBC ([1]; 50 mg/kg): 30 mL/min/kg
- pIC50 (human MRGPRX2): > 7.00

SMILES: CC(c1ccccc1F)c1c(F)ccc2c1NC(NCc1ncccc1F)=NS2(=O)=O (single isomer, unassigned) [Compound 10-1A]
- pIC50 (Human LAD2 cells; [2]): 6.30 to 7.00
- Cmax ([1]; 50 mg/kg): 4.6 µM
- TBC ([1]; 50 mg/kg): 26 mL/min/kg
- half-life [1, 3]: 2.6 h
- pIC50 (human MRGPRX2): > 7.00

SMILES: CC(c1ccc(F)cc1)c1c(F)ccc2c1NC(NCc1ncccc1F)=NS2(=O)=O (single isomer, unassigned) [Compound 10-4A]
- pIC50 (Human LAD2 cells; [2]): 6.30 to 7.00
- TBC ([1]; 50 mg/kg): 11 mL/min/kg
- Cmax [1, 3]: 9.6 µM
- half-life [1, 3]: 4.4 h
- pIC50 (human MRGPRX2): > 7.00

SMILES: COc1cccnc1CNC1=NS(=O)(=O)c2cc(F)c(F)c(Oc3ccccc3Cl)c2N1 [Compound 1-7, 5-(2-chlorophenoxy)-6,7-difluoro-3-(((3-methoxypyridin-2-yl)methyl)amino)-4H-benzo[e][1,2,4]thiadiazine 1,1-dioxide]
- pIC50 (human MRGPRX2): 6.30 to 7.00

SMILES: O=S1(=O)N=C(NCc2ccccc2F)Nc2c(Cc3ccc(F)cc3)cccc21 [Compound 6-14, 5-(4-fluorobenzyl)-3-((2-fluorobenzyl)amino)-4H-benzo[e][1,2,4]thiadiazine 1,1-dioxide]
- pIC50 (human MRGPRX2): > 7.00

SMILES: CC(C)(C)c1cccc(Cl)c1Oc1c(F)ccc2c1NC(NCc1ncccc1F)=NS2(=O)=O [Compound 1-36, 5-(2-(tert-butyl)-6-chlorophenoxy)-6-fluoro-3-(((3-fluoropyridin-2-yl)methyl)amino)-4H-benzo[e][1,2,4]thiadiazine 1,1-dioxide]
- pIC50 (human MRGPRX2): > 7.00

SMILES: O=S1(=O)N=C(NCc2ccccc2C(F)(F)F)Nc2c(Cc3ccccc3Cl)cccc21 [Compound 12-27, 5-(2-chlorobenzyl)-3-((2-(trifluoromethyl)benzyl)amino)-4H-benzo[e][1,2,4]thiadiazine 1,1-dioxide]
- pIC50 (human MRGPRX2): > 7.00

SMILES: O=S1(=O)N=C(NCc2ccccc2F)Nc2c(Cc3c(Cl)cccc3Cl)cccc21 [Compound 6-5, 5-(2,6-dichlorobenzyl)-3-((2-fluorobenzyl)amino)-4H-benzo[e][1,2,4]thiadiazine 1,1-dioxide]
- pIC50 (human MRGPRX2): > 7.00

SMILES: O=S1(=O)N=C(NCc2ccccc2C(F)(F)F)Nc2c1cc(F)c(F)c2Oc1ccccc1Cl [Compound 1-22, 5-(2-chlorophenoxy)-6,7-difluoro-3-((2-(trifluoromethyl)benzyl)amino)-4H-benzo[e][1,2,4]thiadiazine 1,1-dioxide]
- pIC50 (human MRGPRX2): 6.30 to 7.00

SMILES: O=C(c1ccccc1Cl)c1cccc2c1NC(NCc1ccccc1F)=NS2(=O)=O [Compound 16-2, (2-chlorophenyl)(3-((2-fluorobenzyl)amino)-1,1-dioxido-4H-benzo[e][1,2,4]thiadiazin-5-yl)methanone]
- pIC50 (human MRGPRX2): > 7.00

SMILES: O=S1(=O)N=C(NCc2ncccc2F)Nc2c1ccc(F)c2Oc1ccc(F)cc1F [Compound 1-39, 5-(2,4-difluorophenoxy)-6-fluoro-3-(((3-fluoropyridin-2-yl)methyl)amino)-4H-benzo[e][1,2,4]thiadiazine 1,1-dioxide]
- pIC50 (human MRGPRX2): > 7.00

SMILES: C[C@H](c1ccccc1F)c1c(F)ccc2c1NC(NCc1ccccc1F)=NS2(=O)=O [Compound 24-1, (R)-6-fluoro-3-((2-fluorobenzyl)amino)-5-(1-(2-fluorophenyl)ethyl)-4H-benzo[e][1,2,4]thiadiazine 1,1-dioxide]
- pIC50 (human MRGPRX2): > 7.00

SMILES: CC(c1ccccc1F)c1c(F)ccc2c1NC(NCc1cc(Cl)cc(Cl)c1)=NS2(=O)=O (centres unmarked) [Compound 7-8, 3-((3,5-dichlorobenzyl)amino)-6-fluoro-5-(1-(2-fluorophenyl)ethyl)-4H-benzo[e][1,2,4]thiadiazine 1,1-dioxide]
- pIC50 (human MRGPRX2): > 7.00

SMILES: CC(c1cccc(N(C)C)c1)c1c(F)ccc2c1NC(NCc1cccc(F)c1)=NS2(=O)=O (centres unmarked) [Compound 22-23, 5-(1-(3-(dimethylamino)phenyl)ethyl)-6-fluoro-3-((3-fluorobenzyl)amino)-4H-benzo[e][1,2,4]thiadiazine 1,1-dioxide]
- pIC50 (human MRGPRX2): 6.30 to 7.00

SMILES: O=S1(=O)N=C(NCc2cccc(F)c2)Nc2c1ccc(F)c2Oc1ccccc1Cl [Compound 1-11, 5-(2-chlorophenoxy)-6-fluoro-3-((3-fluorobenzyl)amino)-4H-benzo[e][1,2,4]thiadiazine 1,1-dioxide]
- pIC50 (human MRGPRX2): > 7.00

SMILES: O=S1(=O)N=C(NCc2ccc(F)cc2)Nc2c1ccc(F)c2Oc1ccccc1Cl [Compound 1-12, 5-(2-chlorophenoxy)-6-fluoro-3-((4-fluorobenzyl)amino)-4H-benzo[e][1,2,4]thiadiazine 1,1-dioxide]
- pIC50 (human MRGPRX2): 6.30 to 7.00

SMILES: CC(c1ccc(F)c(C#N)c1)c1c(F)ccc2c1NC(NCc1cccc(F)c1)=NS2(=O)=O (centres unmarked) [Compound 22-27, 2-fluoro-5-(1-(6-fluoro-3-((3-fluorobenzyl)amino)-1,1-dioxido-4H-benzo[e][1,2,4]thiadiazin-5-yl)ethyl)benzonitrile]
- pIC50 (human MRGPRX2): > 7.00

SMILES: Cc1ccc(CNC2=NS(=O)(=O)c3cccc(Cc4ccccc4Cl)c3N2)cc1C [Compound 12-13, 5-(2-chlorobenzyl)-3-((3,4-dimethylbenzyl)amino)-4H-benzo[e][1,2,4]thiadiazine 1,1-dioxide]
- pIC50 (human MRGPRX2): > 7.00
